Several values for one entry are separate records, joined by “and”; a condition that tells them apart may be missing. Equal entries are not always repeated.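 Briefly, cells in 96-well plates were exposed to five compound concentrations for 48 h, and endpoints were estimated by linear interpolation. Here, GI50 denotes the concentration required for 50% inhibition of growth. TGI denotes the concentration required for complete inhibition of growth.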
Legend:
Test in all cases: NCI tumour cell line growth inhibition, 48 h
SF-268 CNS = system: SF-268 CNS
HOP-18 NSCLC = system: HOP-18 NSCLC
HCT-116 colon = system: HCT-116 colon
MOLT-4 leukemia = system: MOLT-4 leukemia
SK-MEL-5 melanoma = system: SK-MEL-5 melanoma
NCI-H23 lung = system: NCI-H23 lung
OVCAR-8 ovarian = system: OVCAR-8 ovarian
KM12 colon = system: KM12 colon
TK-10 renal = system: TK-10 renal
OVCAR-4 ovarian = system: OVCAR-4 ovarian
COLO 205 colon = system: COLO 205 colon
SN12C renal = system: SN12C renal
IGROV1 ovarian = system: IGROV1 ovarian
SW-620 colon = system: SW-620 colon
RXF-631 renal = system: RXF-631 renal
RPMI-8226 leukemia = system: RPMI-8226 leukemia
OVCAR-3 ovarian = system: OVCAR-3 ovarian
HCC-2998 colon = system: HCC-2998 colon
K-562 leukemia = system: K-562 leukemia
HOP-92 NSCLC = system: HOP-92 NSCLC
MALME-3M melanoma = system: MALME-3M melanoma
HL-60(TB) leukemia = system: HL-60(TB) leukemia
ACHN renal = system: ACHN renal
SNB-78 CNS = system: SNB-78 CNS
SR leukemia = system: SR leukemia
SK-OV-3 ovarian = system: SK-OV-3 ovarian
U251 CNS = system: U251 CNS
A498 renal = system: A498 renal
NCI-H460 lung = system: NCI-H460 lung
UACC-62 melanoma = system: UACC-62 melanoma
HCT-15 colon = system: HCT-15 colon
KM20L2 colon = system: KM20L2 colon
DMS 273 small cell lung = system: DMS 273 small cell lung
SNB-75 CNS = system: SNB-75 CNS
DLD-1 colon = system: DLD-1 colon
HOP-62 NSCLC = system: HOP-62 NSCLC
SNB-19 CNS = system: SNB-19 CNS
DMS 114 small cell lung = system: DMS 114 small cell lung
UO-31 renal = system: UO-31 renal
CAKI-1 renal = system: CAKI-1 renal
CCRF-CEM leukemia = system: CCRF-CEM leukemia
LXFL 529 NSCLC = system: LXFL 529 NSCLC
SF-295 CNS = system: SF-295 CNS
786-0 renal = system: 786-0 renal
EKVX NSCLC = system: EKVX NSCLC
A549 NSCLC = system: A549 NSCLC
SK-MEL-28 melanoma = system: SK-MEL-28 melanoma
NCI-H522 lung = system: NCI-H522 lung
SF-539 CNS = system: SF-539 CNS
RXF 393 renal = system: RXF 393 renal
M19-MEL melanoma = system: M19-MEL melanoma
SK-MEL-2 melanoma = system: SK-MEL-2 melanoma
M14 melanoma = system: M14 melanoma
HT29 colon = system: HT29 colon
OVCAR-5 ovarian = system: OVCAR-5 ovarian
UACC-257 melanoma = system: UACC-257 melanoma

Q: Which TGI (SF-268 CNS) does the source give for O=C1[C@@H]2C(c3ccc(Br)cc3)=NO[C@@H]2C(=O)N1c1ccc(Cc2ccc(N3C(=O)[C@H]4C(c5ccc(Br)cc5)=NO[C@H]4C3=O)cc2)cc1 here?
A: > 3.48 µM

Q: And the GI50 (HOP-18 NSCLC)?
A: > 40 µM

Q: And the TGI (HOP-18 NSCLC)?
A: > 40 µM

Q: What about the TGI (HCT-116 colon) of the same compound?
A: > 40 µM

Q: What about the GI50 (MOLT-4 leukemia) of the same compound?
A: > 40 µM

Q: And the TGI (MOLT-4 leukemia)?
A: > 40 µM

Q: And the TGI (SK-MEL-5 melanoma)?
A: > 3.48 µM

Q: And the TGI (NCI-H23 lung)?
A: > 3.48 µM

Q: And the GI50 (OVCAR-8 ovarian)?
A: > 40 µM

Q: What about the TGI (OVCAR-8 ovarian) of the same compound?
A: > 40 µM

Q: And the TGI (KM12 colon)?
A: > 3.48 µM

Q: What about the TGI (TK-10 renal) of the same compound?
A: > 40 µM

Q: And the GI50 (OVCAR-4 ovarian)?
A: > 40 µM

Q: And the TGI (OVCAR-4 ovarian)?
A: > 40 µM

Q: And the GI50 (COLO 205 colon)?
A: > 40 µM

Q: And the TGI (COLO 205 colon)?
A: > 40 µM

Q: What about the TGI (SN12C renal) of the same compound?
A: > 40 µM

Q: And the GI50 (IGROV1 ovarian)?
A: > 40 µM

Q: And the TGI (IGROV1 ovarian)?
A: > 40 µM

Q: What about the GI50 (SW-620 colon) of the same compound?
A: > 40 µM

Q: And the TGI (SW-620 colon)?
A: > 40 µM

Q: What about the TGI (RXF-631 renal) of the same compound?
A: > 40 µM

Q: What about the GI50 (RPMI-8226 leukemia) of the same compound?
A: > 40 µM

Q: What about the TGI (RPMI-8226 leukemia) of the same compound?
A: > 40 µM

Q: And the GI50 (OVCAR-3 ovarian)?
A: > 40 µM

Q: And the TGI (OVCAR-3 ovarian)?
A: > 40 µM

Q: What about the TGI (HCC-2998 colon) of the same compound?
A: > 3.48 µM

Q: And the GI50 (K-562 leukemia)?
A: > 40 µM

Q: And the TGI (K-562 leukemia)?
A: > 40 µM

Q: And the TGI (HOP-92 NSCLC)?
A: > 40 µM

Q: And the GI50 (MALME-3M melanoma)?
A: > 40 µM

Q: What about the TGI (MALME-3M melanoma) of the same compound?
A: > 40 µM

Q: What about the TGI (HL-60(TB) leukemia) of the same compound?
A: > 3.48 µM

Q: And the TGI (ACHN renal)?
A: > 40 µM

Q: What about the GI50 (SNB-78 CNS) of the same compound?
A: > 40 µM

Q: And the TGI (SNB-78 CNS)?
A: > 40 µM

Q: And the TGI (SR leukemia)?
A: > 40 µM

Q: What about the TGI (SK-OV-3 ovarian) of the same compound?
A: > 3.48 µM

Q: And the TGI (U251 CNS)?
A: > 3.48 µM

Q: And the TGI (A498 renal)?
A: > 3.48 µM and 16.2 µM

Q: And the GI50 (NCI-H460 lung)?
A: > 40 µM

Q: And the TGI (NCI-H460 lung)?
A: > 40 µM

Q: And the GI50 (UACC-62 melanoma)?
A: > 40 µM

Q: What about the TGI (UACC-62 melanoma) of the same compound?
A: > 40 µM

Q: And the TGI (HCT-15 colon)?
A: > 40 µM

Q: What about the GI50 (KM20L2 colon) of the same compound?
A: > 40 µM

Q: What about the TGI (KM20L2 colon) of the same compound?
A: > 40 µM

Q: And the TGI (DMS 273 small cell lung)?
A: > 40 µM

Q: And the GI50 (SNB-75 CNS)?
A: > 40 µM

Q: What about the TGI (SNB-75 CNS) of the same compound?
A: > 40 µM

Q: And the GI50 (DLD-1 colon)?
A: > 40 µM

Q: And the TGI (DLD-1 colon)?
A: > 40 µM

Q: And the TGI (HOP-62 NSCLC)?
A: > 3.48 µM

Q: And the TGI (SNB-19 CNS)?
A: > 3.48 µM

Q: What about the TGI (DMS 114 small cell lung) of the same compound?
A: > 3.48 µM

Q: And the GI50 (UO-31 renal)?
A: > 40 µM

Q: What about the TGI (UO-31 renal) of the same compound?
A: > 40 µM

Q: And the GI50 (CAKI-1 renal)?
A: > 40 µM

Q: And the TGI (CAKI-1 renal)?
A: > 40 µM

Q: And the GI50 (CCRF-CEM leukemia)?
A: > 40 µM

Q: And the TGI (CCRF-CEM leukemia)?
A: > 40 µM

Q: What about the GI50 (LXFL 529 NSCLC) of the same compound?
A: > 40 µM

Q: And the TGI (LXFL 529 NSCLC)?
A: > 40 µM

Q: And the TGI (SF-295 CNS)?
A: > 3.48 µM

Q: What about the TGI (786-0 renal) of the same compound?
A: > 3.48 µM

Q: What about the TGI (EKVX NSCLC) of the same compound?
A: > 3.48 µM

Q: What about the TGI (A549 NSCLC) of the same compound?
A: > 3.48 µM

Q: What about the GI50 (SK-MEL-28 melanoma) of the same compound?
A: > 40 µM

Q: And the TGI (SK-MEL-28 melanoma)?
A: > 40 µM

Q: What about the GI50 (NCI-H522 lung) of the same compound?
A: > 40 µM

Q: And the TGI (NCI-H522 lung)?
A: > 40 µM

Q: And the TGI (SF-539 CNS)?
A: > 3.48 µM

Q: And the GI50 (RXF 393 renal)?
A: > 40 µM

Q: And the TGI (RXF 393 renal)?
A: > 40 µM

Q: What about the GI50 (M19-MEL melanoma) of the same compound?
A: > 40 µM

Q: And the TGI (M19-MEL melanoma)?
A: > 40 µM

Q: And the GI50 (SK-MEL-2 melanoma)?
A: > 40 µM

Q: And the TGI (SK-MEL-2 melanoma)?
A: > 40 µM

Q: What about the GI50 (M14 melanoma) of the same compound?
A: > 40 µM

Q: What about the TGI (M14 melanoma) of the same compound?
A: > 40 µM

Q: What about the GI50 (HT29 colon) of the same compound?
A: > 40 µM

Q: And the TGI (HT29 colon)?
A: > 40 µM

Q: And the GI50 (OVCAR-5 ovarian)?
A: > 40 µM

Q: What about the TGI (OVCAR-5 ovarian) of the same compound?
A: > 40 µM

Q: What about the GI50 (UACC-257 melanoma) of the same compound?
A: > 40 µM

Q: And the TGI (UACC-257 melanoma)?
A: > 40 µM
